Data as given in patent US8962641B2, “Pyrimidine-substituted pyrrolidine derivatives, pharmaceutical compositions and uses thereof” (Boehringer Ingelheim International GmbH, priority 2013, dated 2015).

The compounds below were run against human ACC2 (Homo sapiens (Human), UniProt O00763) (assay: ACC2 assay (spectrophotometric 384 well assay, NADH-linked kinetic method)). Details: hACC2 construct lacking 128 N-terminal amino acids; coupled lactate dehydrogenase/pyruvate kinase reaction, 340 nm, 25° C.
Chain of human ACC2 (O00763 129-2458): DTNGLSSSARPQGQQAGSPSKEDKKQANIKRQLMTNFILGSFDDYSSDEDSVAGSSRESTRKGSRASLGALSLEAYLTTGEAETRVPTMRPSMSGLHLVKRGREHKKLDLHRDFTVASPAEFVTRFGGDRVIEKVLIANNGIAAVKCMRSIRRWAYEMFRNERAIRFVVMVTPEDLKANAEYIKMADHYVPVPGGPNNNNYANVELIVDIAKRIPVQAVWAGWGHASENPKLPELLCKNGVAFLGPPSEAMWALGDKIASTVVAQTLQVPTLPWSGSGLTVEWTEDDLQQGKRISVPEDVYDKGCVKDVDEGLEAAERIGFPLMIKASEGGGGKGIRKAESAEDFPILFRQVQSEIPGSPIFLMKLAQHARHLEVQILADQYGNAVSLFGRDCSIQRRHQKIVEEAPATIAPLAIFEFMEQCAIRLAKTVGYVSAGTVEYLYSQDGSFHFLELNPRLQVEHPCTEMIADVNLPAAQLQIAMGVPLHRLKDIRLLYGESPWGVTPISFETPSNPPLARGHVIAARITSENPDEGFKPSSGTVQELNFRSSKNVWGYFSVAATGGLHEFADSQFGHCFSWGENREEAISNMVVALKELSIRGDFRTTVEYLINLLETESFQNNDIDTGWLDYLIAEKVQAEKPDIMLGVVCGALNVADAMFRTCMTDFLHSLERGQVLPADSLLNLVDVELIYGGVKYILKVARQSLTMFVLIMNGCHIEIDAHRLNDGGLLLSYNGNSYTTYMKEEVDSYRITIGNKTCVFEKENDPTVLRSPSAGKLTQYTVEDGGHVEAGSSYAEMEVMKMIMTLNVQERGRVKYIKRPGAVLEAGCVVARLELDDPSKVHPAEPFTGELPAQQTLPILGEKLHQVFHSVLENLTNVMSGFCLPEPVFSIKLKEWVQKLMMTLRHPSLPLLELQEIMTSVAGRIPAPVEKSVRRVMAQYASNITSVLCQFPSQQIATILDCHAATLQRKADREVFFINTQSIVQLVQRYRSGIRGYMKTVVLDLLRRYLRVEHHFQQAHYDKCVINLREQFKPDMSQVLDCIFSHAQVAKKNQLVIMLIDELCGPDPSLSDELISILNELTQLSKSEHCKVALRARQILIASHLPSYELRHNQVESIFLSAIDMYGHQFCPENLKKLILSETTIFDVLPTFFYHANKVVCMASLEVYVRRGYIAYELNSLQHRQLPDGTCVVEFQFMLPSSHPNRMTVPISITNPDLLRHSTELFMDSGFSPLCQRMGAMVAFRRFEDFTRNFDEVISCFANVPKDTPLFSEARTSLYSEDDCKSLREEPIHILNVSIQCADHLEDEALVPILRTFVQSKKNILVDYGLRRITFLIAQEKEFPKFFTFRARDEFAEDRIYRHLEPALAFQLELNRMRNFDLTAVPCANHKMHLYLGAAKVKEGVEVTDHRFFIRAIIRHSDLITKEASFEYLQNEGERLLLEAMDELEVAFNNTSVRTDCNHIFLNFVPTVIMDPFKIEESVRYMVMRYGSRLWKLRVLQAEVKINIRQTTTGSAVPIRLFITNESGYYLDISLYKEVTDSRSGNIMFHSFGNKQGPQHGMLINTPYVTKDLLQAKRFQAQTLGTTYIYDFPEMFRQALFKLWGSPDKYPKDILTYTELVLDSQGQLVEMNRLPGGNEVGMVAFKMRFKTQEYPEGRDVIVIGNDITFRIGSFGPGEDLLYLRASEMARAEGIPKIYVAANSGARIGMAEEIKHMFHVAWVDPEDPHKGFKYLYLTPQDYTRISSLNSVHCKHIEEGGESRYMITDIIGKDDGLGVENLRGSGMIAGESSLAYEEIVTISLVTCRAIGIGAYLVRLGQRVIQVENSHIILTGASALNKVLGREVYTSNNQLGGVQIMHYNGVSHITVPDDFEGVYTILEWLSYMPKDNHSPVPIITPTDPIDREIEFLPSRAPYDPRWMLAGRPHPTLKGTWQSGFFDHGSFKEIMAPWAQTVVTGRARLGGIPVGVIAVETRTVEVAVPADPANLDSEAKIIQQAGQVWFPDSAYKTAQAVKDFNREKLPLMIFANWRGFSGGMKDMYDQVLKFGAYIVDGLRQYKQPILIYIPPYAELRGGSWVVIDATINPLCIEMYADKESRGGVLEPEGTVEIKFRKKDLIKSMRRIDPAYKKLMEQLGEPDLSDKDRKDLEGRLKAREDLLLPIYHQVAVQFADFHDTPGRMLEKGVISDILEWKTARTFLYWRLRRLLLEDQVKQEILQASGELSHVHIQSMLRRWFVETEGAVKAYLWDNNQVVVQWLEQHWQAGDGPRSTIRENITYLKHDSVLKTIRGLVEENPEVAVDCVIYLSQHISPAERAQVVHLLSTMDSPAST
Type: biochemical
Summary of the method: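 Baculovirus/insect-cell human ACC2, anion-exchange purified; ADP formation coupled to pyruvate kinase/lactate dehydrogenase, NADH loss followed at 340 nm, 25° C, 15 min. Final 200 μM NADH and acetyl-CoA, 500 uM ATP; vehicle and no-acetyl-CoA wells set 100% and 0%.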
Compound CC(=O)N[C@@H](C)c1ccc(O[C@@H]2CCN(c3ccnc(N4C[C@@H](C)O[C@@H](C)C4)n3)C2)cc1 [Example 8.85] has an IC50 of 566 nM. Work on COc1c(NCC2(O)CCC2)ncnc1N1CC[C@@H](Oc2ccc([C@H](C)NC(C)=O)cc2)C1 [Example 8.300] yielded an IC50 of 537 nM. With CC(=O)N[C@@H](C)c1ccc(O[C@@H]2CCN(c3ncnc(OCC4CC4(F)F)c3Cl)C2)cc1 (some centres unmarked) [Example 7.40] the IC50 was 42 nM. Work on CC(=O)N[C@@H](C)c1ccc(O[C@@H]2CCN(c3nc(N(C)C4CCOCC4)ncc3F)C2)cc1 [Example 8.290] yielded an IC50 of 765 nM. Compound CC(=O)N[C@@H](C)c1ccc(O[C@@H]2CCN(c3cc(OC4CCC4)ncn3)C2)cc1 [Example 7.4] has an IC50 of 373 nM. With CCCOc1ncnc(N2CC[C@@H](Oc3ccc([C@H](C)NC(C)=O)cc3)C2)c1Cl [Example 7.21] the IC50 was 45 nM. Compound CCN(CCO)c1ncc(F)c(N2CC[C@@H](Oc3ccc([C@H](C)NC(C)=O)cc3)C2)n1 [Example 8.240] has an IC50 of 215 nM. CC(=O)N[C@@H](C)c1ccc(O[C@@H]2CCN(c3ncnc(OC4CCCC4)c3F)C2)cc1 [Example 7.47] was tested, and the IC50 was 58 nM. Compound CC(=O)N[C@@H](C)c1ccc(O[C@@H]2CCN(c3nc(N(C)C)ncc3Br)C2)cc1 [Example 8.58] has an IC50 of 484 nM. CC(=O)N[C@@H](C)c1ccc(O[C@@H]2CCN(c3ncnc(N4C[C@@H]5CC[C@@H](C4)O5)c3F)C2)cc1 [Example 8.278] was tested, and the IC50 was 673 nM. CC(=O)N[C@@H](C)c1ccc(O[C@@H]2CCN(c3nc(N(C)CC(C)O)ncc3Cl)C2)cc1 (some centres unmarked) [Example 8.185] gave an IC50 of 753 nM. Work on CC(=O)N[C@@H](C)c1ccc(O[C@@H]2CCN(c3ncnc(N4CCC(C)C4)c3F)C2)cc1 (some centres unmarked) [Example 8.139] yielded an IC50 of 49 nM. For CCC(=O)N[C@@H](C)c1ccc(OC2CCN(c3ncnc(OCC4CC4)c3F)C2)cc1 (some centres unmarked) [Example 2.23], the IC50 was 144 nM. CC(=O)N[C@@H](C)c1ccc(O[C@@H]2CCN(c3ccnc(N4CC(F)(F)C(F)(F)C4)n3)C2)cc1 [Example 8.74] gave an IC50 of 115 nM. For CC(=O)N[C@@H](C)c1ccc(O[C@@H]2CCN(c3ncnc(N4CCC(CO)C4)c3F)C2)cc1 (some centres unmarked) [Example 8.202], the IC50 was 721 nM. CC(=O)Nc1nc(C)c(C(=O)N[C@@H](C)c2ccc(OC3CCN(c4ccnc(N(C)CC(F)F)n4)C3)cc2)s1 (some centres unmarked) [Example 2.10] gave an IC50 of 115 nM. Work on COC[C@H]1CCCN1c1ncnc(N2CC[C@@H](Oc3ccc([C@H](C)NC(C)=O)cc3)C2)c1F [Example 8.197] yielded an IC50 of 733 nM. For CCN(c1nccc(N2CC[C@@H](Oc3ccc([C@H](C)NC(C)=O)cc3)C2)n1)C(C)C [Example 8.260], the IC50 was 180 nM. CC(=O)N[C@@H](C)c1ccc(O[C@@H]2CCN(c3ccnc(N(CCC#N)CC4CCCO4)n3)C2)cc1 (some centres unmarked) [Example 8.110] gave an IC50 of 234 nM. CC(=O)N[C@@H](C)c1ccc(O[C@@H]2CCN(c3nc(N(C)CC4CCOC4)ncc3F)C2)cc1 (some centres unmarked) [Example 8.29] showed an IC50 of 150 nM. Work on CCC(=O)Nc1nc(C)c(C(=O)N[C@@H](C)c2ccc(O[C@@H]3CCN(c4ncnc(OCC(C)(C)O)c4Cl)C3)cc2)s1 [Example 7.66] yielded an IC50 of 723 nM. For CC(=O)N[C@@H](C)c1ccc(O[C@@H]2CCN(c3nc(N(C)C4CC4)ncc3F)C2)cc1 [Example 8.68], the IC50 was 50 nM. Compound CC(=O)N[C@@H](C)c1ccc(O[C@@H]2CCN(c3nc(N(C)CC(C)C)ncc3Cl)C2)cc1 [Example 8.223] has an IC50 of 103 nM. In the case of C[C@H](NC(=O)N(C)C)c1ccc(OC2CCN(c3ncnc(OCC4CC4)c3F)C2)cc1 (some centres unmarked) [Example 3.10], the IC50 is reported as 45 nM. CC(=O)N[C@@H](C)c1ccc(O[C@@H]2CCN(c3ccnc(N4CCCC4)n3)C2)cc1 [Example 8.5] was tested, and the IC50 was 403 nM. With CC(=O)N[C@@H](C)c1ccc(O[C@@H]2CCN(c3nc(N4CCC(F)(F)CC4)ncc3F)C2)cc1 [Example 8.261] the IC50 was 96 nM. Work on CC(=O)N[C@@H](C)c1ccc(O[C@@H]2CCN(c3ncnc(N4CCCCC4)c3Cl)C2)cc1 [Example 8.112] yielded an IC50 of 53 nM. Work on CC(=O)N[C@@H](C)c1ccc(O[C@@H]2CCN(c3nc(N4CCc5nocc5C4)ncc3F)C2)cc1 [Example 8.238] yielded an IC50 of 534 nM. In the case of CC(=O)N[C@@H](C)c1ccc(O[C@@H]2CCN(c3ccnc(C(F)(F)F)n3)C2)cc1 [Example 6.21], the IC50 is reported as 303 nM. CC(=O)N[C@@H](C)c1ccc(O[C@@H]2CCN(c3ncnc(OC(C)C)c3Cl)C2)cc1 [Example 7.52] gave an IC50 of 105 nM. CC(=O)N[C@@H](C)c1ccc(O[C@@H]2CCN(c3ncnc(OC[C@@H]4CC4(F)F)c3F)C2)cc1 [Example 7.48] was tested, and the IC50 was 87 nM. Compound CCCN(C)c1ccnc(N2CC[C@@H](Oc3ccc([C@H](C)NC(C)=O)cc3)C2)n1 [Example 6.22] has an IC50 of 1350 nM. For CC(=O)N[C@@H](C)c1ccc(O[C@@H]2CCN(c3ccnc(N4CCOC(C)(C)C4)n3)C2)cc1 [Example 8.89], the IC50 was 293 nM. For COc1cccc(-c2nccc(N3CC[C@@H](Oc4ccc([C@H](C)NC(C)=O)cc4)C3)n2)c1 [Example 9.1, N—((S)-1-(4-((R)-1-(2-(3-methoxyphenyl)pyrimidin-4-yl)pyrrolidin-3-yloxy)phenyl)ethyl)acetamide], the IC50 was 725 nM. CC(=O)N[C@@H](C)c1ccc(O[C@@H]2CCN(c3nc(N4CCC[C@@H]4C)ncc3F)C2)cc1 [Example 8.282] gave an IC50 of 157 nM. CC(=O)N[C@@H](C)c1ccc(O[C@@H]2CCN(c3ncc(C4CCC4)cn3)C2)cc1 [Example 6.17] gave an IC50 of 2360 nM. Compound COC[C@H](C)N(C)c1ncnc(N2CC[C@@H](Oc3ccc([C@H](C)NC(C)=O)cc3)C2)c1F [Example 8.177] has an IC50 of 476 nM. CC(=O)N[C@@H](C)c1ccc(O[C@@H]2CCN(c3ccnc(N(C)C4CC4)n3)C2)cc1 [Example 8.19] showed an IC50 of 475 nM. Work on CC(=O)N[C@@H](C)c1ccc(O[C@@H]2CCN(c3nc(N4C[C@@H]5CC[C@@H](C4)O5)ncc3F)C2)cc1 [Example 8.279] yielded an IC50 of 369 nM. For C[C@H](NC(=O)C1CC1)c1ccc(OC2CCN(c3ccnc(N4CCOCC4)n3)C2)cc1 (some centres unmarked) [Example 2.2], the IC50 was 359 nM. COCCN(C)c1nccc(N2CC[C@@H](Oc3ccc([C@H](C)NC(C)=O)cc3)C2)n1 [Example 8.49] showed an IC50 of 219 nM. COC1CCN(c2ncc(F)c(N3CC[C@@H](Oc4ccc([C@H](C)NC(C)=O)cc4)C3)n2)CC1 [Example 8.193] showed an IC50 of 229 nM. In the case of CCOc1ncc(F)c(N2CC[C@@H](Oc3ccc([C@H](C)NC(C)=O)cc3)C2)n1 [Example 7.12], the IC50 is reported as 585 nM. CC(=O)N[C@@H](C)c1ccc(O[C@@H]2CCN(c3ncnc(NCC4CCCCO4)c3Cl)C2)cc1 (some centres unmarked) [Example 8.316] was tested, and the IC50 was 580 nM. In the case of CC(=O)N[C@@H](C)c1ccc(O[C@@H]2CCN(c3nc(N4CCCC4(C)C)ncc3Cl)C2)cc1 [Example 8.152], the IC50 is reported as 215 nM. In the case of CC(=O)N[C@@H](C)c1ccc(O[C@@H]2CCN(c3nc(N4CCC(C)(C)C4)ncc3Cl)C2)cc1 [Example 8.191], the IC50 is reported as 222 nM. In the case of CC(=O)N[C@@H](C)c1ccc(O[C@@H]2CCN(c3ccnc(N4CCCCC4)n3)C2)cc1 [Example 8.18], the IC50 is reported as 160 nM. For CC(=O)N[C@@H](C)c1ccc(O[C@@H]2CCN(c3ccnc(N4[C@H](C)COC[C@@H]4C)n3)C2)cc1 [Example 8.90], the IC50 was 364 nM. CC(=O)N[C@@H](C)c1ccc(O[C@@H]2CCN(c3ncnc(N4CC[C@](C)(O)C4)c3F)C2)cc1 [Example 8.291] showed an IC50 of 111 nM. CC(=O)N[C@@H](C)c1ccc(O[C@@H]2CCN(c3ccnc(N(C)Cc4ccccc4)n3)C2)cc1 [Example 8.23] showed an IC50 of 185 nM. With CC(=O)N[C@@H](C)c1ccc(O[C@@H]2CCN(c3nc(N4CCC(F)(F)C4)ncc3Cl)C2)cc1 [Example 8.128] the IC50 was 278 nM. COC(=O)N[C@@H](C)c1ccc(OC2CCN(c3ncnc(OCC4CC4)c3F)C2)cc1 (some centres unmarked) [Example 4.5] showed an IC50 of 85 nM. Work on CC(=O)N[C@@H](C)c1ccc(O[C@@H]2CCN(c3nc(N(C)C4CCC4)ncc3F)C2)cc1 [Example 8.190] yielded an IC50 of 41 nM. Work on CC(=O)N[C@@H](C)c1ccc(O[C@@H]2CCN(c3nc(N4CCCCC4)ncc3F)C2)cc1 [Example 8.8] yielded an IC50 of 45 nM. Compound CCNC(=O)N[C@@H](C)c1ccc(O[C@@H]2CCN(c3nc(N4CCC5(CC5)C4)ncc3F)C2)cc1 [Example 3.17] has an IC50 of 242 nM. With CC(=O)N[C@@H](C)c1ccc(O[C@@H]2CCN(c3ncnc(OCC(F)F)c3Cl)C2)cc1 [Example 7.57] the IC50 was 109 nM. CC(=O)N[C@@H](C)c1ccc(O[C@@H]2CCN(c3ncnc(N4CCCC(F)(F)C4)c3F)C2)cc1 [Example 8.161] gave an IC50 of 384 nM. With CCN(C)C(=O)N[C@@H](C)c1ccc(OC2CCN(c3ccnc(N4CCOCC4)n3)C2)cc1 (some centres unmarked) [Example 3.7] the IC50 was 374 nM. With CC(=O)N[C@@H](C)c1ccc(O[C@@H]2CCN(c3nc(N4CC(F)(F)C(F)(F)C4)ncc3Cl)C2)cc1 [Example 8.222] the IC50 was 150 nM. In the case of CCN(CCOC)c1nccc(N2CC[C@@H](Oc3ccc([C@H](C)NC(C)=O)cc3)C2)n1 [Example 8.106], the IC50 is reported as 160 nM. CC(=O)N[C@@H](C)c1ccc(O[C@@H]2CCN(c3cc(N4CCOCC4C)ncn3)C2)cc1 (some centres unmarked) [Example 8.163] showed an IC50 of 469 nM. COCC(=O)Nc1nc(C)c(C(=O)N[C@@H](C)c2ccc(OC3CCN(c4ccnc(N(C)CC(F)F)n4)C3)cc2)s1 (some centres unmarked) [Example 2.11] was tested, and the IC50 was 115 nM. With C[C@H](NC(=O)c1cn[nH]c1)c1ccc(OC2CCN(c3ncnc(OCC4CC4)c3F)C2)cc1 (some centres unmarked) [Example 2.20] the IC50 was 53 nM. CC(=O)N[C@@H](C)c1ccc(O[C@@H]2CCN(c3ccnc(N4CC=CC4)n3)C2)cc1 [Example 8.196] gave an IC50 of 277 nM. For CO[C@@H]1CCN(c2ncnc(N3CC[C@@H](Oc4ccc([C@H](C)NC(C)=O)cc4)C3)c2F)C1 [Example 8.234], the IC50 was 898 nM. In the case of CC(=O)N[C@@H](C)c1ccc(O[C@@H]2CCN(c3nc(N4CC[C@H](O)C4)ncc3F)C2)cc1 [Example 8.245], the IC50 is reported as 937 nM. Compound CC(=O)N[C@@H](C)c1ccc(O[C@@H]2CCN(c3ccnc(N4CCCC4C)n3)C2)cc1 (some centres unmarked) [Example 8.16] has an IC50 of 354 nM. For COc1cccc(N(C)c2nccc(N3CC[C@@H](Oc4ccc([C@H](C)NC(C)=O)cc4)C3)n2)c1 [Example 8.39], the IC50 was 452 nM.
